Measured values from publication PMC2364625, “Characterization and site-directed mutagenesis of Wzb, an O-phosphatase from Lactobacillus rhamnosus” (BMC Biochemistry, 2008).

How the values were obtained:
Wzb [1] = molecular target: T1, Wzb (Lacticaseibacillus rhamnosus, UniProt Q58Z13); assay: pNPP hydrolysis, absorbance at […] nm; format: biochemical; details: 2.5 mM pNPP; MES-HEPES, 1% BSA; Cu2+ essential, Co2+ stimulates; optimum pH 7.3, 75 °C
T1 construct: 6His-tagged fusion, pQE30 (pGL387, wzb ORF in SacI-KpnI), E. coli NM522, purified under urea and renatured on Ni-NTA, 27 kDa; tag not reported as cut; forward primer starts at codon 2 (Ile)
T1 sequence (Q58Z13 2-254): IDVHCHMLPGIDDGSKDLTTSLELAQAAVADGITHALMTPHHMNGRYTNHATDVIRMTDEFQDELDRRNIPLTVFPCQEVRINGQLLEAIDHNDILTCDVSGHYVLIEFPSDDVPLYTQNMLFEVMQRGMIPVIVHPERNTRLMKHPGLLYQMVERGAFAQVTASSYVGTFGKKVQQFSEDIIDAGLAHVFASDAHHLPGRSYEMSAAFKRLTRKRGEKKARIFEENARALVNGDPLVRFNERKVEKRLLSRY

Wzb [2] = molecular target: T1, Wzb; assay: pNPP hydrolysis, absorbance at […] nm; format: biochemical; details: inhibitor; increasing inhibition from 1 mM to 100 mM, no residual activity at 100 mM (data not shown); substrate pNPP

O=[N+]([O-])c1ccc(OP(=O)(O)O)cc1 [p-nitrophenyl-phosphate]
pNPP hydrolysis, absorbance at 405 nm (Wzb [1]): The purified Wzb fusion protein was active on p-nitrophenyl-phosphate (pNPP)

[O]=[V]([OH])([OH])[OH] [sodium orthovanadate]
inhibition (Wzb [2]): Wzb activity on pNPP was inhibited by sodium orthovanadate (Na3VO4)
